From PubChem BioAssay AID1159560 (GlaxoSmithKline (GSK), 2015) come the findings set out here.

Active and inactive are the calls of the source. No rule for the calls is given here.

This test deals with Leishmania donovani growth inhibition. Kind of test: Leishmania donovani growth inhibition (AID 1159560).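 Also: parasites exposed to compound for 72 h before the viability read.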
As usually defined, the IC50 is the concentration that gives 50% inhibition. `COc1cccc(NS(=O)(=O)c2ccc3[nH]cc(C(=O)NCCC(C)C)c(=O)c3c2)c1`: the IC50 is > 50 µM (inactive).

On to `COc1cc(C2SCC(=O)Nc3c2c(C)nn3-c2nc3ccccc3s2)cc(OC)c1O` (configuration not stated), for which the IC50 is 6.3 µM.

`NCC(Cc1ccccc1)NC(=O)c1cnc(-c2c[nH]c3ncccc23)s1` (configuration not stated): the IC50 was > 50 µM (inactive).

For the compound `O=C(Cc1ccccc1)Nc1[nH]nc2sc(C(=O)NC3CCCC3)cc12`, the IC50 is 4 µM.

Regarding `Cc1ccc(NC(=O)c2ccnc(N3CCCC3)c2)cc1-c1ccsc1C(N)=O`, the IC50 is > 50 µM (inactive).

Take `Cc1cc(Nc2cc(C3CC3)[nH]n2)nc(N2CCCC2)n1`: the IC50 is 0.79 µM.

As to `Cc1ccccc1NS(=O)(=O)c1ccc2[nH]cc(C(=O)NC3CCCC(C)C3C)c(=O)c2c1` (configuration not stated), the IC50 is 25 µM.

Turning to `CNS(=O)(=O)c1ccccc1Nc1nc(Nc2ccnn2C)ncc1Cl`, the IC50 was 0.2 µM.

Take `COc1ccc2ncc(=O)n(CCN3CC[C@H](NCc4ncc(Cl)c5[nH]ncc45)[C@H](O)C3)c2n1`: the IC50 is > 50 µM (inactive).

Consider `CCC(CC)C(=O)Nc1ccc(-c2nnc(-c3ccc(OC)cc3)o2)cc1`, for which the IC50 is > 50 µM (inactive).

Turning to `CNc1nc(C)nc(N2CCc3cc(C(=O)NCc4ccc(-c5ccn[nH]5)cc4Cl)ccc32)n1`, the IC50 is 2.5 µM.

Regarding `COc1cccc(CN(C)Cc2nc(N)c3c(C)c(C)sc3n2)c1`, the IC50 was 32 µM.

As to `COc1ccc2c(Cl)c(C(=O)N3CCC3)sc2c1Cl`, the IC50 is > 50 µM (inactive).

Consider `c1ccc(CCNCc2cncc3nc(-c4cnccn4)n(C4CCCCC4)c23)cc1`, for which the IC50 is > 50 µM (inactive).

As for `Nc1nc(-c2ccccn2)nc(-n2nc(-c3cccc(C(F)(F)F)c3)cc2N)n1`, the IC50 was 10 µM.

Consider `c1ccc(Nc2nc3ccccc3[nH]2)nc1`, for which the IC50 is 25 µM.

On to `Fc1ccccc1N1C[C@H]2CCN(c3cccnc3)C[C@H]2C1`, for which the IC50 was 13 µM.

Take `CCN(Cc1cccs1)C(=O)CSc1nnc(-c2ccc3c(c2)OCO3)o1`: the IC50 was 3.2 µM.

Take `COc1cc(NC(=O)Nc2cccc(CNC(=O)OC3CCCCC3)c2)ccc1-c1cnco1`: the IC50 is > 50 µM (inactive).

Take `CCc1cccc(-n2nc(OCC(=O)NC3CCCC3)c3cccnc32)c1`: the IC50 was 2.5 µM.

Regarding `c1ccc2sc(Nc3nc4ncccc4[nH]3)nc2c1`, the IC50 is 1.6 µM.

Turning to `CCOc1ccc(N(C)S(=O)(=O)c2ccc3[nH]cc(C(=O)NC4CCCC4)c(=O)c3c2)cc1`, the IC50 is > 50 µM (inactive).

With `O=C(CN(Cc1ccccn1)Cc1ccccn1)NCc1ccc2c(c1)OCO2`, the IC50 is 13 µM.

As for `CCN(Cc1ccncc1)Cc1ccc(NC(=O)c2cc(-c3ccc(F)cc3)n[nH]2)cc1`, the 50% inhibitory concentration (IC50) is 16 µM.

`COc1ccc(C)cc1-c1csc(NC(=O)C(C)n2ccnc2)n1` (configuration not stated): the IC50 was 3.2 µM.

Turning to `CN(C)S(=O)(=O)c1cccc(CSc2nnc(-c3ccc4c(c3)OCO4)o2)c1`, the 50% inhibitory concentration (IC50) was 1 µM.

As for `O=C1c2cnc(N3CCCC3)nc2CN1c1ccc2c(c1)OCO2`, the IC50 is 6.3 µM.

Take `COc1ccc2ncc(F)c(CCN3CC[C@@H](NC(=O)c4cc5c(s4)CCC5)[C@@H](O)C3)c2n1`: the IC50 was 1 µM.

Turning to `Cc1cn[nH]c1C1CCCN(Cc2nc3ccccc3n2C)C1` (configuration not stated), the half-inhibitory concentration (IC50) was 16 µM.

Turning to `CN1CCCN(C(=O)c2ccc(N3CCCC3)cc2Cl)CC1`, the IC50 was 40 µM.

On to `Cc1cccc(N2CCCN(Cc3c[nH]c4ccccc34)CC2)n1`, for which the IC50 is > 50 µM (inactive).

In the case of `O=C(Nc1nc(-c2ccccn2)cs1)c1ccccc1-n1cnnn1`, the IC50 was 3.2 µM.

With `CN1C(=O)c2ccccc2Sc2ccc(NC(=O)NCc3ccco3)cc21`, the IC50 is > 50 µM (inactive).

In the case of `Cn1cc(CN2CCN(c3ccc4c(c3)CCN(C(=O)[C@H]3C[C@@H]3c3ccccc3)CC4)CC2)cn1`, the IC50 is 0.63 µM.

For the compound `Cc1ccc(C)c(OC2CCN(C(=O)C(C)n3ccnc3)CC2)c1` (configuration not stated), the IC50 was 2.5 µM.

In the case of `COc1cccc(S(=O)(=O)Nc2ccc3c(c2)CC(N2CCC(NC(=O)C4CC4)CC2)C3)c1` (configuration not stated), the IC50 was > 50 µM (inactive).

Regarding `Cc1ccc(-c2csc(NC(=O)C=Cc3ccc(S(=O)(=O)N4CCOCC4)cc3)n2)o1`, the IC50 is 6.3 µM.

As to `O=C(Nc1ncc([N+](=O)[O-])s1)C1CC1`, the IC50 was 40 µM.

Take `CC1=NN(C(=O)CCn2cnc([N+](=O)[O-])n2)C(O)(C(F)(F)F)C1` (configuration not stated): the IC50 was > 50 µM (inactive).

Consider `COCCn1c(-c2ccccc2)cnc1NCc1ccccc1OC`, for which the IC50 was > 50 µM (inactive).

Consider `Clc1ccc(C(CC2CCCCO2)Cn2cncn2)c(Cl)c1` (configuration not stated), for which the half-inhibitory concentration (IC50) is 25 µM.

For the compound `CCNc1cc(-c2ccccn2)nc(Nc2ccc(OC)cc2)n1`, the half-maximal inhibitory concentration (IC50) is 1.6 µM.

Regarding `CNC(=O)C1Cc2ccccc2N1C(=O)Cc1ccc(OC)cc1` (configuration not stated), the IC50 was > 50 µM (inactive).

As for `O=[N+]([O-])c1cccc(Nc2cncc(-c3ccccc3CO)c2)c1`, the IC50 is 40 µM.

On to `CC1CCCCN1C(=O)NCCc1coc(-c2ccc(F)cc2)n1` (configuration not stated), for which the IC50 is > 50 µM (inactive).

For `O=C(C1CCCCC1)N1CCN(c2nnc(-c3ccccc3)c3ccccc23)CC1`, the IC50 is > 50 µM (inactive).

Turning to `c1ccc2c(CCOc3nccnc3-c3ccncc3)c[nH]c2c1`, the IC50 is 5 µM.

As to `CCC(=O)Nc1ccccc1C(=O)Nc1ccccn1`, the IC50 is > 50 µM (inactive).

Consider `O=C(Nc1nc(-c2ccccn2)cs1)C1CCc2ccccc2C1` (configuration not stated), for which the IC50 was 5 µM.

Take `CCC(=O)Nc1ccc(C(=O)Nc2ccccc2-c2ccccc2)cc1`: the 50% inhibitory concentration (IC50) is 10 µM.

For the compound `Cc1cc(N(C)C)nc2ccc(Cc3cnc(N)nc3N)cc12`, the IC50 is > 50 µM (inactive).

As to `Cc1nc(-c2ccncc2)ncc1C(C)NC(=O)c1ccc(Cl)s1` (configuration not stated), the IC50 is > 50 µM (inactive).

Regarding `CNc1cc(Cn2c(C(=O)c3cc(C)cc(Cl)c3)c(C(C)C)c(=O)[nH]c2=O)ccn1`, the IC50 is > 50 µM (inactive).

Turning to `CC(C)(C)c1csc(NC(=O)c2ccc([N+](=O)[O-])s2)n1`, the IC50 is 1.6 µM.

Regarding `Cc1nc(N2CCC(C(=O)N3CCC(O)(c4cccnc4)CC3)CC2)nc2ccc(C(C)C)cc12`, the IC50 is > 50 µM (inactive).

Take `O=[N+]([O-])c1ccc(-c2nnn(-c3cccnc3)n2)o1`: the concentration for half-maximal inhibition (IC50) was 16 µM.

Turning to `COc1cnc2ccc(=O)n(CCN3CCC(NC/C=C/c4cc(F)ccc4F)CC3)c2c1`, the IC50 was 5 µM.

For the compound `O=C(Nc1nc(-c2ccccn2)cs1)N1C[C@H]2C[C@@]2(c2ccccc2)C1`, the IC50 was 2 µM.

For the compound `Cc1nc2c(-c3ncn[nH]3)cc(NC(=O)Cc3ccccc3)cn2c1C`, the IC50 was 0.79 µM.

In the case of `Cc1[nH]nc2c1C(c1ccc(OCc3ccccc3F)cc1)SCC(=O)N2` (configuration not stated), the IC50 was 40 µM.

In the case of `Cc1nc(-c2ccc3c(c2)OCO3)sc1C(=O)NCc1ccc2c(c1)OCO2`, the IC50 was 2 µM.

For `FC(F)(F)c1cc(C2CCCN(Cc3c[nH]c4ccccc34)C2)nc2ncnn12` (configuration not stated), the IC50 was > 50 µM (inactive).

Regarding `CS(=O)(=O)N1CCC(Nc2ncc(Br)c(Nc3cccc(F)c3C(N)=O)n2)CC1`, the IC50 was 0.1 µM.

In the case of `COc1ccc(C(C)(C)C)cc1S(=O)(=O)n1ccnc1`, the IC50 is 40 µM.

For the compound `Cc1nn(-c2ccccc2)nc1CNC(=O)CN(Cc1ccccn1)Cc1ccccn1`, the IC50 is 7.9 µM.

Regarding `NC(=O)c1ncc(N[C@@H]2CCCNC2)nc1Nc1cccc(Cl)c1`, the concentration for half-maximal inhibition (IC50) was 2.5 µM.

Take `COc1ccc(-c2cnc(C)o2)cc1S(=O)(=O)Nc1ccc(C)cc1C`: the IC50 was 4 µM.

With `COc1cc(C(C)C)c(S(C)(=O)=O)cc1C(=O)N1CCN(c2ccccc2Cl)CC1`, the IC50 is 5 µM.

Regarding `COc1ccc2nccc(NC(=O)C3(OC)CCN(CC(O)c4ccc5c(c4)OCCO5)CC3)c2n1` (configuration not stated), the IC50 is 10 µM.

As for `O=C(NCc1nnc2n1CCCCC2)c1csc(-c2ccccc2)n1`, the IC50 is > 50 µM (inactive).

As to `COCc1cc(Nc2cccc(Cl)c2)nc(-c2ccccn2)n1`, the IC50 was 2.5 µM.

As to `COc1ccc(CNc2cc(C3CC3)nc(-c3nccn3C)n2)cc1`, the IC50 is 2 µM.

Turning to `N#Cc1cc(N2CCCC2=O)ccc1Sc1ccccc1CO`, the IC50 was > 50 µM (inactive).

In the case of `Nc1nonc1-c1nc2cncc(C(=O)N3CC[C@H](N)C3)c2n1CC1CC1`, the IC50 was > 50 µM (inactive).

For `O=C1NCCn2ccc(Nc3nc(NC4CCC(O)CC4)ncc3Cl)c21` (configuration not stated), the IC50 is 2.5 µM.

For the compound `O=C(CN1CCN(c2ccccn2)CC1)Nc1cc(S(=O)(=O)N2CCCCCC2)ccc1Cl`, the IC50 was 7.9 µM.

In the case of `N#Cc1cccc(CNc2ccc(-c3cnn(CC4CC4)c(=O)c3C#N)cc2)c1`, the IC50 was 25 µM.

Take `CCOc1ccc(CC(=O)N2c3ccccc3CC2C(=O)NC)cc1` (configuration not stated): the IC50 is > 50 µM (inactive).

On to `O=C(Nc1ccc(Br)cn1)c1ccc(Cn2cnc([N+](=O)[O-])n2)cc1`, for which the IC50 is > 50 µM (inactive).

Turning to `CC(=O)Nc1ccc(-c2cnc(N)c(-c3nc4ccc(F)cc4[nH]3)c2)cc1`, the IC50 is 6.3 µM.

On to `Cc1cc(N(C)C)nc(Nc2ccccc2C)n1`, for which the IC50 is > 50 µM (inactive).

`Cc1ccccc1NS(=O)(=O)c1ccc2[nH]cc(C(=O)NC3CCCCC3)c(=O)c2c1`: the IC50 was > 50 µM (inactive).

`N#Cc1nc(C=Cc2ccccc2)oc1NCc1cccnc1`: the IC50 was 25 µM.

For `COc1cnc2ccc(=O)n(CCN3CCC(NC(=O)Cc4ccc(Cl)c(Cl)c4)CC3)c2c1`, the IC50 is 5 µM.

On to `Cc1ccc2onc(Nc3ccnc(Nc4cccc(S(C)(=O)=O)c4)n3)c2c1`, for which the IC50 is 5 µM.

Regarding `N#Cc1ccc(S(=O)(=O)N2CCC3(CCN(c4ccccc4)C3=O)CC2)cc1`, the IC50 is > 50 µM (inactive).

Take `COc1ccc(-c2csc(NC(=O)c3ccc([N+](=O)[O-])s3)n2)cc1`: the half-inhibitory concentration (IC50) was 3.2 µM.

Consider `Cc1ccc(NC(=O)c2ccnc(N3CCCC3)c2)cc1-c1cc(C(N)=O)ccc1C`, for which the half-maximal inhibitory concentration (IC50) is 25 µM.

For `N#Cc1cccc(Cc2cc(Nc3cc(C4CC4)[nH]n3)nc(N3CC[C@H]3C(N)=O)n2)c1`, the IC50 is 0.63 µM.

With `O=C(CC1(O)C(=O)N(Cc2ccccc2)c2ccc(Br)cc21)c1cccnc1` (configuration not stated), the IC50 is > 50 µM (inactive).

Take `CCC(c1ccc(F)cc1)n1cncc1-c1cnn(C)c1` (configuration not stated): the IC50 was > 50 µM (inactive).

For the compound `COc1ccc(-c2nc3ncccc3o2)cc1NC(=O)c1cccs1`, the IC50 is 5 µM.
